The record followed here is BindingDB's records for doi:10.1021/acschembio.7b00186 (University of Strasburg, 2017).

Assay [1] concerns the target T1, ADP-ribosyl cyclase/cyclic ADP-ribose hydrolase [1-303] (Blood fluke, UniProt Q32TF5).
T1 construct: 1-303
T1 sequence (Q32TF5 whole entry): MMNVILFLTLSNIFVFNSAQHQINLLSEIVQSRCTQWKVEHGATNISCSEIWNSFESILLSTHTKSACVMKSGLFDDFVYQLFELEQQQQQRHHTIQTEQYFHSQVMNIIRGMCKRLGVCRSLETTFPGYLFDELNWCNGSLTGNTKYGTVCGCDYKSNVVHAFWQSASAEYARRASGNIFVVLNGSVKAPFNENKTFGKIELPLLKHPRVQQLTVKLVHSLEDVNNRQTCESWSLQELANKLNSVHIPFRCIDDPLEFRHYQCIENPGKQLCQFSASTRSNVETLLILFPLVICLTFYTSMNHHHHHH
Put plainly: NAD glycohydrolase assay. The following applies: pH 7.4; 37 °C. As for the experimental part: (§1) SmNACE activity and inhibition were measured with a sensitive, continuous, fluorometric assay platform that used 1,N6-ethenonicotinamide adenine dinucleotide (εNAD; Sigma-Aldrich, Inc.) as a substrate. This assay consists of measuring the appearance of the fluorescent εADP-ribose reaction product with excitation (λexc) and emission (λem) wavelengths of 310 and 410 nm, respectively, at 37 °C using the thermostatically controlled Spectramax Gemini XPS fluorescence plate reader (100 uL reaction volume; Molecular Devices, LLC) or the thermostatically controlled RF-5301PC spectrofluorophotometer (1 mL reaction volume; Shimadzu Scientific Instruments). The biochemical assay with 100 ug/mL of recombinant SmNACE was carried out in a 10 mM potassium phosphate buffer, at pH 7.4, containing 0.05% (w/v) emulphogen.

The target in assay [2] is T2, ADP-ribosyl cyclase/cyclic ADP-ribose hydrolase (Blood fluke, UniProt Q32TF5).
T2 sequence (Q32TF5 whole entry): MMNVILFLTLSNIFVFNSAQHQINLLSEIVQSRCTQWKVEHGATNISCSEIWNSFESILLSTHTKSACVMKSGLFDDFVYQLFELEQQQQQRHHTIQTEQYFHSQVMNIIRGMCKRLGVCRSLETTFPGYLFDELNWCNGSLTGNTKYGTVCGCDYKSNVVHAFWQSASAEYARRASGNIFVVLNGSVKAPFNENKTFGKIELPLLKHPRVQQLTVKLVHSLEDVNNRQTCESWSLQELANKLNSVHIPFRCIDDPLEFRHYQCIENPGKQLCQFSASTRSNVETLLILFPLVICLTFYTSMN
Put plainly: NAD glycohydrolase assay. The note with it: pH 7.4; 37 °C. Here is the method: as §1

A word on the IC50: it is the concentration that gives 50% inhibition. For `Cc1occc1C(=O)N/N=C/c1ccc(O)c(O)c1` [SmNACE inhibitor, 1], the IC50 is 88 µM in assay [1] and 69 µM in assay [2].
In the case of `Cc1occc1C(=O)N/N=C/c1cc(Cl)ccc1O` [SmNACE inhibitor, 2], the IC50 is 0.033 µM in assay [1] and 0.126 µM in assay [2].
Take `O=C(Nc1nc(=O)c2ccccc2s1)c1ccco1` [SmNACE inhibitor, 3]: the IC50 in assay [1] was 2.2 µM; in assay [2], greater than 20 µM.
The matching figures for `Cc1ccc2c(c1)C[N]1NC(C3CCOC3C)[O][Zn+]1[O]2` (stereo not drawn) [Zn(II) complex of 2]: 0.33 µM and greater than 200 µM.
